The results in this text go back to patent US8013153B2, “Substituted pyrimidine kinase inhibitors” (Janssen Pharmaceutica, N.V., priority 2006, dated 2011).

What is called pIC50 is −log10 of the IC50, conventionally taken in molar units. In general, IC50 refers to the concentration that gives 50% inhibition. Low readings indicate higher potency, high ones lower potency.

The target in one assay is T1, CDK1:Cyclin-B (Homo sapiens, UniProt P06493).
T1 construct: purchased New England Biolabs, Beverly, Mass; 6020; host or cells: insect cells
T1 sequence (P06493 whole entry): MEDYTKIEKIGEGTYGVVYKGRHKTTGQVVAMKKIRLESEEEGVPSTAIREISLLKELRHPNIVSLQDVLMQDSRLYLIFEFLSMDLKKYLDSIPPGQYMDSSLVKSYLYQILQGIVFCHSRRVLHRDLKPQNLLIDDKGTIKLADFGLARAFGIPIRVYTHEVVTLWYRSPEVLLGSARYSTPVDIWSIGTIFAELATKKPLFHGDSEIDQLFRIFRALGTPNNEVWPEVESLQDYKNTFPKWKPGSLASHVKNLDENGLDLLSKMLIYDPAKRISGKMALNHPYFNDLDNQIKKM
T1 sequence (P14635 whole entry partner): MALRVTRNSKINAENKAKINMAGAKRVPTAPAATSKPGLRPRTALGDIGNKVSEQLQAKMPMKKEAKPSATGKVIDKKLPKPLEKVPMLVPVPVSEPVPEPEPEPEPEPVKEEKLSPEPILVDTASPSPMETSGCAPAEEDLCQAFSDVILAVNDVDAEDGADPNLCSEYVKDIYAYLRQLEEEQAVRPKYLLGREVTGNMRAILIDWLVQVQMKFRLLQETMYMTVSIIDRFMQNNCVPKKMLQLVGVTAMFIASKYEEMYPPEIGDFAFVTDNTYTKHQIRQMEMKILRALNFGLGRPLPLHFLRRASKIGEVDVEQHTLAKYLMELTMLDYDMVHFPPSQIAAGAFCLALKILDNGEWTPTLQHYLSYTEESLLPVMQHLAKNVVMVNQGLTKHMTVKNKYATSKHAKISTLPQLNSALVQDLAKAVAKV
The assay is described as follows: CDK1 Screening Assay. The assay is classed as biochemical. On the procedure: (§1) A kinase reaction mixture was prepared containing 50 mM Tris-HCl pH=8, 10 mM MgCl2, 0.1 mM Na3PO4, 1 mM DTT, 10 μM ATP, 0.025 μM biotinylated histone-H1 peptide substrate and 0.2 μCuries per well ^33P-γ-ATP (2000-3000 Ci/mmol). 70 μL of the kinase reaction mixture was dispensed into the well of a streptavidin coated FlashPlate™ (Cat. # SMP103, NEN, Boston, Mass.). Then 1 μL of test compound stock in 100% DMSO was added to the wells resulting in a final concentration of 1% DMSO in the reaction with a 100 μL final reaction volume.
(§2) The CDK1:Cyclin-B protein was diluted in 50 mM Tris-HCl pH=8.0, 0.1% BSA at a concentration of 1 ng per μL and 30 μL (30 ng enzyme per test well) was added to each well to initiate the reaction. The reaction was incubated for one hour at 30° C. At the end of the 1 hour incubation, the reaction was terminated by aspirating the mixture from the plate and washing the wells twice with PBS containing 100 mM EDTA. The histone-H1 biotinylated peptide substrate became immobilized on the Flashplate™ and the incorporation of ^33P-γ-ATP was measured by reading the plate on a scintillation counter. Inhibition of the enzymatic activity of CDK1 was measured by observing a reduced amount of ^33P-γ-ATP incorporated into the immobilized peptide.
The CDK1 used was isolated from insect cells expressing both the human CDK1 catalytic subunit and its positive regulatory subunit cyclin B (New England Biolabs, Beverly, Mass., Cat. #6020).

Assay [1] deals with T2, rat VEGF-R2 kinase domain (Rattus norvegicus, UniProt O08775).
T2 construct: amino acids 786-1343 of the rat VEGF-R2 kinase domain; polyhistidine (N)
T2 sequence (O08775 786-1343): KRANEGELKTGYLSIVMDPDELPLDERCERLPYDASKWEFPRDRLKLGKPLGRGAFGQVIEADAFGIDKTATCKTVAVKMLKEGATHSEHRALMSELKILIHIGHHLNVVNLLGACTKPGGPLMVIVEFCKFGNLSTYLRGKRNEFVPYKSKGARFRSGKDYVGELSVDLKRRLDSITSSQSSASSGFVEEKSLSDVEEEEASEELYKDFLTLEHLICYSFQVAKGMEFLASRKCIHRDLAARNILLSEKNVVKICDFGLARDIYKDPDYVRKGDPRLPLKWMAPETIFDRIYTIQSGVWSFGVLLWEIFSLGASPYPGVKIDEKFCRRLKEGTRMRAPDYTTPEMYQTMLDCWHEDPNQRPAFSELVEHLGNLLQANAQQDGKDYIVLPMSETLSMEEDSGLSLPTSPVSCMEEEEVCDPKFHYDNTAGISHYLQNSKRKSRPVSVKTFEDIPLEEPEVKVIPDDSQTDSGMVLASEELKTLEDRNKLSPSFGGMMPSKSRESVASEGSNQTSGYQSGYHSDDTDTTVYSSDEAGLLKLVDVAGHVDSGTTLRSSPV
Put plainly: VEGF-R2 Screening Assay. The assay is classed as biochemical.

The target in a further assay is T3, murine Aurora-A (Mus musculus, UniProt P97477).
T3 construct: replaced with the full length protein encoding the murine Aurora-A; made in house; host or cells: sf9 insect cells
T3 sequence (P97477 1-395): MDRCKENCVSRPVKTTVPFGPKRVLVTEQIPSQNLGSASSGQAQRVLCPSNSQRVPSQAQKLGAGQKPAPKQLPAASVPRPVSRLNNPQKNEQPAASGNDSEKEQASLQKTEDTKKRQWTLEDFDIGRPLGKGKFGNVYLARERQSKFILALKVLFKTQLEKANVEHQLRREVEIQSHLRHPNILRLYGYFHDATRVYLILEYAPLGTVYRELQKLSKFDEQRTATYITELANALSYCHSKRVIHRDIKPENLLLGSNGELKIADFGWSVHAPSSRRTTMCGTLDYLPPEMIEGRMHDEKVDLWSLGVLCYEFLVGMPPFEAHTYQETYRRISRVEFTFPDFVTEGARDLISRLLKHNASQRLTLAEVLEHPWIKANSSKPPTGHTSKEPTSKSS
The assay is described as follows: Aurora-A Screening Assay. The assay is classed as biochemical. As to the method: as §1, §2
The Aurora-A kinase assay was carried out using the CDK kinase assay procedure except that the enzyme was replaced with the full length protein encoding the murine Aurora-A (Accession #GB BC014711) expressed and purified from sf9 insect cells.

The target of another assay is T4, HER2 cytoplasmic domain (Homo sapiens, UniProt P04626).
T4 construct: polyhistidine (N)
T4 sequence (P04626 676-1255 limits assumed): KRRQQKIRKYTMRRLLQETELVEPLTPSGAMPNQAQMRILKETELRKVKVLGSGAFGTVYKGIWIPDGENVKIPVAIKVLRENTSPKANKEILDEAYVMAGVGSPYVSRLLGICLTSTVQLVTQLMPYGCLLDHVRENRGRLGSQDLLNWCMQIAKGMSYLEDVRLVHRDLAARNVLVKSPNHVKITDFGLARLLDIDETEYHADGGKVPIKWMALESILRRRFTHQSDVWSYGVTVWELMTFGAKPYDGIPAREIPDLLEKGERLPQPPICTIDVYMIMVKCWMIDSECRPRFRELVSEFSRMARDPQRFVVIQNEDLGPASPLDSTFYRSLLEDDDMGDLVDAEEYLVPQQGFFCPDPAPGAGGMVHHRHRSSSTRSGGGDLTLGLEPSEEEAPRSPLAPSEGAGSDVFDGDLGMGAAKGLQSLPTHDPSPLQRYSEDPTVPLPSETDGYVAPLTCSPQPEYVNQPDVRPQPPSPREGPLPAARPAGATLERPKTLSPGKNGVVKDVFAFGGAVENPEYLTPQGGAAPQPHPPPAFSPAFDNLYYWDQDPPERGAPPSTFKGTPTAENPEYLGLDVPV
The assay is described as follows: HER2 Kinase Screening Assay. The assay is classed as biochemical. To be noted: > means no observed 50% inhibition at the indicated test concentration; ~ means approximately 50% inhibition at that concentration. On the procedure: as §1, §2
The HER2 kinase assay was carried out using the CDK kinase assay procedure except that the enzyme was replaced with a HER2 construct containing a polyhistidine tag at the N-terminus followed by 24 additional amino acids and the HER2 cytoplasmic domain beginning at amino acid 676 (Accession #M11730) to the end.

In assay [2] the test system is HeLa cervical adenocarcinoma. The assay is described as follows: Inhibition of in vitro cell proliferation (HeLa).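 Note: cells exposed to compound for 24 h, then labelled 24 h with methyl 14C-thymidine, with uptake into DNA counted by scintillation against DMSO-only control wells.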 To be noted: 14C-thymidine incorporation. The assay is classed as cell-based, human. For orientation: Incorporation of labelled thymidine or its analogues reports DNA synthesis.
A further assay concerns HCT-116 colon carcinoma. Put plainly: Inhibition of in vitro cell proliferation (HCT116).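 Note: cells exposed to compound for 24 h, then 14C-thymidine added for a further 24 h and its uptake into DNA counted by scintillation, DMSO-only wells as control.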 In kind it is cell-based, human.
The subject of the next assay is A375 malignant melanoma. The assay is described as follows: Inhibition of in vitro cell proliferation (A375).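 Note: cells plated for 24 h, given compound for 24 h, then labelled with 14C-thymidine for another 24 h, with DMSO-only wells as control and counts read by scintillation.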 In kind it is cell-based, human.
[3] abbreviates: > means no observed 50% inhibition at the indicated test concentration, ~ means approximately 50% inhibition at that concentration, read-out: IC50 VEGF-R2.
Where [4] appears, read: Homo sapiens, HCT-116, 14C-thymidine incorporation.
Setting [5] is: Homo sapiens, A-375, 14C-thymidine incorporation.
The mark [6] stands for this setting: > means no observed 50% inhibition at the indicated test concentration, ~ means approximately 50% inhibition at that concentration.

pIC50: −log10 of the molar value. Read-outs that look alike come from different tables or passages of the source.

`CON=Cc1c(N)ncnc1Oc1ccc(NC(=O)Nc2ccccc2)c(Cl)c1` [Cpd 54, 1-{4-[6-amino-5-(methoxyimino-methyl)-pyrimidin-4-yloxy]-2-chloro-phenyl}-3-phenyl-urea]: the pIC50 was less than 4.00 on CDK1:Cyclin-B, 8.52 in assay [1] (setting [3]), less than 4.00 on murine Aurora-A and less than 4.00 against HER2 cytoplasmic domain. The IC50 (in assay [2] (Homo sapiens); in the assay with HCT-116 colon carcinoma (setting [4]); in the assay on A375 malignant melanoma (setting [5])) was more than 100 µM in each case.

As for `CON=Cc1c(N)ncnc1Oc1ccc(NC(=O)Nc2ccccc2Cl)c(Cl)c1` [Cpd 55, 1-{4-[6-amino-5-(methoxyimino-methyl)-pyrimidin-4-yloxy]-2-chloro-phenyl}-3-(2-chloro-phenyl)-urea], the pIC50 is less than 4.00 against CDK1:Cyclin-B, 8.59 in assay [1] (setting [3]), less than 5.00 against murine Aurora-A and 5.74 on HER2 cytoplasmic domain. For the same molecule, the IC50 (in assay [2] (Homo sapiens); in the assay on HCT-116 colon carcinoma (setting [4]); in the assay with A375 malignant melanoma (setting [5])) was more than 10 µM each time.

On to `CON=Cc1c(N)ncnc1Oc1ccc(NC(=O)Nc2ccccc2F)c(Cl)c1` [Cpd 56, 1-{4-[6-amino-5-(methoxyimino-methyl)-pyrimidin-4-yloxy]-2-chloro-phenyl}-3-(2-fluoro-phenyl)-urea], for which the pIC50 is less than 4.00 on CDK1:Cyclin-B, 8.48 in assay [1] (IC50 VEGF-R2), less than 4.00 on murine Aurora-A and less than 5.00 against HER2 cytoplasmic domain. Further, the 50% inhibitory concentration (IC50) (in assay [2] (Homo sapiens); with HCT-116 colon carcinoma (setting [4]); with A375 malignant melanoma (setting [5])) was more than 10 µM each time.

For `CON=Cc1c(N)ncnc1Oc1ccc(NC(=O)Nc2cccc(F)c2)c(Cl)c1` [Cpd 57, 1-{4-[6-amino-5-(methoxyimino-methyl)-pyrimidin-4-yloxy]-2-chloro-phenyl}-3-(3-fluoro-phenyl)-urea], the pIC50 at CDK1:Cyclin-B is less than 4.00; in assay [1] (setting [3]), 8.77; on murine Aurora-A, less than 4.00; against HER2 cytoplasmic domain, less than 5.00. Further, the IC50 (in assay [2] (Homo sapiens); in the assay with HCT-116 colon carcinoma (setting [4]); with A375 malignant melanoma (setting [5])) was more than 10 µM each time.

For the molecule `CON=Cc1c(N)ncnc1Oc1ccc(NC(=O)Nc2ccccc2OC)c(Cl)c1` [Cpd 58, 1-{4-[6-amino-5-(methoxyimino-methyl)-pyrimidin-4-yloxy]-2-chloro-phenyl}-3-(2-methoxy-phenyl)-urea], the pIC50 at CDK1:Cyclin-B is less than 4.00; in assay [1] (setting [3]), 8.60; at murine Aurora-A it was less than 4.00; against HER2 cytoplasmic domain, 5.77. Besides, the IC50 was found to be 11.9 µM in assay [2] (Homo sapiens), 8.19 µM in the assay on HCT-116 colon carcinoma (setting [4]) and 5.06 µM in the assay with A375 malignant melanoma (setting [5]).

With `CON=Cc1c(N)ncnc1Oc1ccc(NC(=O)Nc2cccc(Cl)c2)c(Cl)c1` [Cpd 59, 1-{4-[6-amino-5-(methoxyimino-methyl)-pyrimidin-4-yloxy]-2-chloro-phenyl}-3-(3-chloro-phenyl)-urea], the pIC50 was less than 4.00 on CDK1:Cyclin-B, 8.52 in assay [1] (setting [3]), less than 4.00 against murine Aurora-A and less than 6.00 at HER2 cytoplasmic domain. In addition, the IC50 (in assay [2] (Homo sapiens); in the assay with HCT-116 colon carcinoma (setting [4]); with A375 malignant melanoma (setting [5])) was more than 10 µM throughout.

Take `CON=Cc1c(N)ncnc1Oc1ccc(NC(=O)Nc2ccc(F)cc2)c(Cl)c1` [Cpd 60, 1-{4-[6-amino-5-(methoxyimino-methyl)-pyrimidin-4-yloxy]-2-chloro-phenyl}-3-(4-fluoro-phenyl)-urea]: the pIC50 on CDK1:Cyclin-B was less than 4.00; in assay [1] (setting [3]) it was 8.55; on murine Aurora-A, less than 5.00; at HER2 cytoplasmic domain, less than 4.00. Besides, the IC50 (in assay [2] (Homo sapiens); in the assay on HCT-116 colon carcinoma (setting [4]); in the assay with A375 malignant melanoma (setting [5])) was more than 10 µM each time.

In the case of `CON=Cc1c(N)ncnc1Oc1ccc(NC(=O)Nc2ccc(F)cc2F)c(Cl)c1` [Cpd 61, 1-{4-[6-amino-5-(methoxyimino-methyl)-pyrimidin-4-yloxy]-2-chloro-phenyl}-3-(2,4-difluoro-phenyl)-urea], the pIC50 at CDK1:Cyclin-B is less than 4.00; in assay [1] (setting [3]), 8.52; on murine Aurora-A, less than 4.00; on HER2 cytoplasmic domain, less than 4.00. Besides, the IC50 is more than 100 µM in assay [2] (Homo sapiens), more than 10 µM in the assay on HCT-116 colon carcinoma (setting [4]) and more than 100 µM with A375 malignant melanoma (setting [5]).

For `CON=Cc1c(N)ncnc1Oc1ccc(NC(=O)Nc2ccc(OC)cc2)c(Cl)c1` [Cpd 62, 1-{4-[6-amino-5-(methoxyimino-methyl)-pyrimidin-4-yloxy]-2-chloro-phenyl}-3-(4-methoxy-phenyl)-urea], the negative logarithm of the IC50 (pIC50) is less than 4.00 against CDK1:Cyclin-B, 8.80 in assay [1] (setting [3]), less than 4.00 against murine Aurora-A and less than 4.00 at HER2 cytoplasmic domain. For the same molecule, the IC50 (in assay [2]; with HCT-116 colon carcinoma (14C-thymidine incorporation); with A375 malignant melanoma (14C-thymidine incorporation)) was more than 100 µM in each case.

For the molecule `CON=Cc1c(N)ncnc1Oc1ccc(NC(=O)Nc2ccc(OC)cc2)c(Cl)c1` [Cpd 63, 1-{4-[6-amino-5-(methoxyimino-methyl)-pyrimidin-4-yloxy]-2-chloro-phenyl}-3-(4-methoxy-phenyl)-urea], the pIC50 on CDK1:Cyclin-B (setting [6]) is less than 4.00; in assay [1] (setting [3]), 8.66; on murine Aurora-A (setting [6]) it was less than 4.00; against HER2 cytoplasmic domain, less than 5.00. The IC50 (in assay [2]; in the assay with HCT-116 colon carcinoma (14C-thymidine incorporation); with A375 malignant melanoma (14C-thymidine incorporation)) was more than 10 µM in each case.

Turning to `CCCCNC(=O)Nc1ccc(Oc2ncnc(N)c2C=NOC)cc1Cl` [Cpd 64, 1-{4-[6-amino-5-(methoxyimino-methyl)-pyrimidin-4-yloxy]-2-chloro-phenyl}-3-butyl-urea], the pIC50 at CDK1:Cyclin-B is less than 4.00; in assay [1] (setting [3]), 8.14; against murine Aurora-A, less than 4.00; on HER2 cytoplasmic domain it was less than 4.00. Further, the IC50 (in assay [2] (Homo sapiens); with HCT-116 colon carcinoma (setting [4]); with A375 malignant melanoma (setting [5])) was more than 100 µM in each case.

For `CON=Cc1c(N)ncnc1Oc1ccc(NC(=O)NC2CCCCC2)c(Cl)c1` [Cpd 65, 1-{4-[6-amino-5-(methoxyimino-methyl)-pyrimidin-4-yloxy]-2-chloro-phenyl}-3-cyclohexyl-urea], the pIC50 against CDK1:Cyclin-B is less than 4.00; in assay [1] (setting [3]) it was 8.19; on murine Aurora-A, less than 4.00; on HER2 cytoplasmic domain, less than 5.00. Moreover, the IC50 (in assay [2] (Homo sapiens); with HCT-116 colon carcinoma (setting [4]); with A375 malignant melanoma (setting [5])) was more than 100 µM throughout.

With `CON=Cc1c(N)ncnc1Oc1ccc(O)cc1` [Cpd 67, 4-amino-6-(4-hydroxy-phenoxy)-pyrimidine-5-carbaldehyde O-methyl-oxime], the pIC50 on CDK1:Cyclin-B is less than 4.00; in assay [1] (setting [3]), 5.36; at murine Aurora-A it was 4.75; against HER2 cytoplasmic domain, 4.88. The IC50 in assay [2] (Homo sapiens) came out at 3.99 µM; in the assay on HCT-116 colon carcinoma (setting [4]), 2.95 µM; in the assay with A375 malignant melanoma (setting [5]), 3.22 µM.

With `CNC(=O)Nc1ccc(Oc2ncnc(N)c2C=NOC)c(Cl)c1` [Cpd 70, 1-{4-[6-amino-5-(methoxyimino-methyl)-pyrimidin-4-yloxy]-3-chloro-phenyl}-3-methyl-urea], the pIC50 against CDK1:Cyclin-B was less than 4.00; in assay [1] (setting [3]) it was 6.56; at murine Aurora-A it was less than 5.00; at HER2 cytoplasmic domain it was less than 4.00. For the same molecule, the values for the concentration for half-maximal inhibition (IC50) (in assay [2] (Homo sapiens); in the assay with HCT-116 colon carcinoma (setting [4]); with A375 malignant melanoma (setting [5])) were 4.06 µM, 4.86 µM and 2.55 µM, respectively.

Take `CCNC(=O)Nc1ccc(Oc2ncnc(N)c2C=NOC)c(Cl)c1` [Cpd 71, 1-{4-[6-amino-5-(methoxyimino-methyl)-pyrimidin-4-yloxy]-3-chloro-phenyl}-3-ethyl-urea]: the pIC50 at CDK1:Cyclin-B was less than 4.00; in assay [1] (setting [3]), 6.75; against murine Aurora-A it was less than 5.00; at HER2 cytoplasmic domain, less than 6.00. Further, the IC50 stood at 3.98 µM in assay [2] (Homo sapiens), 4.79 µM in the assay on HCT-116 colon carcinoma (setting [4]) and 3.09 µM with A375 malignant melanoma (setting [5]).
